From patent US20170209427A1, “USE OF LAQUINIMOD TO DELAY HUNTINGTON'S DISEASE PROGRESSION” (Teva Pharmaceutical Industries, Ltd., priority 2013, published 2017)

How the values were obtained:
[1] = test system: patients with relapsing remitting MS; settings: after 1 year of treatment; cited from earlier work
CYP3A4 = target: T1, CYP3A4 (Homo sapiens, UniProt P08684); assay: Metabolism of laquinimod in the liver; format: in vivo; settings: humans
T1 construct: from tissue; host or cells: human liver (in vivo)

clinical = assay: clinical; parameters: species or system humans; settings: human, in vivo
patients with HD = assay: Phase II randomized, double-blind, placebo-controlled clinical trial of laquinimod in Huntington's disease; format: in vivo, human
Experimental: A phase II, multi-centered, multinational, randomized, parallel-group, double-blinded, placebo-controlled study is conducted to evaluate the safety and efficacy of laquinimod (0.5, 1.0 and 1.5 mg/day) versus placebo in patients with HD.
This study includes 4 treatment arms, with approximately 100 patients per treatment arm and approximately 400 patients in total. The study is conducted in approximately 30 centers in Canada, USA and Europe.
The study population is comprised of patients with adult onset HD, with a cytosine-adenosine-guanine (CAG) repeat length between 40 and 49, inclusive. The basic eligibility criteria selects a population with symptoms of HD, as assessed by a Unified HD Rating Scale—Total Motor Score (UHDRS-TMS)>5, but with a largely retained functional capacity, as assessed with a Unified HD Rating Scale—Total Functional Capacity (UHDRS-TFC) score≧8.
The dose levels of laquinimod are 0.5 mg/day, 1.0 mg/day and 1.5 mg/day. Every patient takes 3 capsules once daily at the same time of the day for the whole study period.
The Laqunimod Treatment Arms are as follows: • 1.5 mg LAQ/day: patients randomized to laquinimod 1.5 mg qd (i.e., once daily) treatment arm receive 3 capsules of 0.5 mg laquinimod daily. • 1.0 mg LAQ/day: patients randomized to laquinimod 1.0 mg qd treatment arm receive 2 capsules of 0.5 mg laquinimod and 1 capsule of matching placebo daily. • 0.5 mg LAQ/day: patients randomized to laquinimod 0.5 mg qd treatment arm receive 1 capsule of 0.5 mg laquinimod and 2 capsules of matching placebo daily.
The 0.5 mg laquinimod capsules were prepared using 0.534 mg of laquinimod sodium per capsule (which is equivalent to 0.5 mg of laquinimod acid). The capsules were prepared using a blend proportional to the 0.6 mg capsules described in PCT International Application No. PCT/US2007/013721 (WO 2007/146248). The capsules were prepared according to the method described in PCT international Application No. PCT/US2007/013721 (WO 2007/146248), which is hereby incorporated by reference into this application.
This is a multinational, multicenter, randomized, double-blind, parallel-group, placebo-controlled study to evaluate the safety and clinical effect of daily oral administration of laquinimod (0.5 mg, 1.0 mg, or 1.5 mg) in patients with HD.
Patients are treated with laquinimod for 12 months, and safety and efficacy are assessed after 1, 3, 6, 9 and 12 months of treatment. Eligible subjects are randomized in a 1:1:1:1 ratio into one of the following treatment arms: • 1. Laquinimod capsule 0.5 mg (Total of 0.5 mg) • 2. Laquinimod capsules 0.5 mg×2 (Total of 1.0 mg) • 3. Laquinimod capsules 0.5 mg×3 (Total of 1.5 mg) • 4. Matching placebo
The following assessments are performed at the specified time points: • 1. Eligibility criteria is reviewed and confirmed at screening and baseline. • 2. Vital signs are measured at each study visit. • 3. A physical examination is performed at each study visit. • 4. The following safety clinical laboratory tests are performed: • a) Complete blood count (CBC) with differential at each study visit. • b) Serum chemistry (including electrolytes, liver enzymes, urea, creatinine, glucose, total protein, albumin, direct and total bilirubin, Creatinephosphokinase (CPK), serum conventional C-reactive protein (CRP), fibrinogen and pancreatic amylase)—at all scheduled visits. […]

[2] = 0.5, 1.0 and 1.5 mg/day oral vs Placebo Arm, 12 months

T1 sequence (P08684 whole entry): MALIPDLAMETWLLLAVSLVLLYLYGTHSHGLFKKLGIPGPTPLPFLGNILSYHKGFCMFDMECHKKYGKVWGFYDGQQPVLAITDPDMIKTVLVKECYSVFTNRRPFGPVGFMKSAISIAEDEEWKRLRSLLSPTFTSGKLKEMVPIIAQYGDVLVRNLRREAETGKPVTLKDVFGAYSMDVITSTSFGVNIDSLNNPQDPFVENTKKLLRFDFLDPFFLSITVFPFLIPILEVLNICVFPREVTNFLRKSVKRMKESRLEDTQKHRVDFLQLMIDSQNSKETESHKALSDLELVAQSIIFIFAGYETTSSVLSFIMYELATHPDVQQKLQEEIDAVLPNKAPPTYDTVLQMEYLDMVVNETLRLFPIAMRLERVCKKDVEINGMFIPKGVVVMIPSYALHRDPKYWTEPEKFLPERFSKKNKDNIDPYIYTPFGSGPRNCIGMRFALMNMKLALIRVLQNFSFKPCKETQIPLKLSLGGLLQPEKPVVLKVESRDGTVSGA

metabolism by CYP3A4 in the liver (CYP3A4): extensively metabolized
Vd (clinical): ~10 L
fraction unbound (clinical): < 0.02
half-life (clinical): ~3.33 days
bioavailability (clinical; po): ~90%
oral clearance (clinical; po): ~0.09 L/h
SMILES: CCN(C(=O)c1c(O)c2c(Cl)cccc2n(C)c1=O)c1ccccc1 [laquinimod]
effect on brain atrophy and disability progression [1]: benefit
Progression (rate of change) of CIBIC-Plus global score (patients with HD; [2]): slower
Progression (rate of change) of HADS (patients with HD; [2]): slower
Progression (rate of change) of PBA (short) (patients with HD; [2]): slower
Progression (rate of change) of Physical Performance Test (PPT) score (patients with HD; [2]): slower
Progression (rate of change) of Q-motor assessments score (patients with HD; [2]): slower
Progression (rate of change) of UHDRS-FA score (patients with HD; [2]): slower
Progression (rate of change) of UHDRS-TMS (patients with HD; [2]): slower
Progression (rate of change) of cognitive assessment battery (CAB) (patients with HD; [2]): slower
Progression (rate of change) of deterioration of functional capacity, UHDRS-TFC score (patients with HD; [2]): slower
Progression (rate of change) of work productivity and quality of life (HD-QoL) (patients with HD; [2]): slower
Progression (rate of change) of brain atrophy (whole brain, caudate, white matter, ventricular volume) (patients with HD; 0.5, 1.0 and 1.5 mg/day oral vs Placebo Arm, MRI, 12 months): slower
treatment of symptomatic early HD patients (patients with HD; 0.5, 1.0 and 1.5 mg/day oral, UHDRS-TMS >5 and/or UHDRS-TFC ≧8 at baseline): effective
